Data: patent US7049138B2, “Epitope-tagged beta-amyloid precursor protein and DNA encoding the same” (Bristol-Myers Squibb Company, priority 1999, dated 2006)

Tested on: HA 11 A-beta (1-40) accumulation in HEK 293/HA 11 beta-APP 695 cells
Experiment: Accumulation of HA 11 A-beta (1-40) in HEK 293/HA 11 beta-APP 695 conditioned medium, position 40-specific ELISA
Type: cell-based, human
Settings: 96-well, serum-free medium with 0.2% BSA, 16 hours, dose-response, versus DMSO vehicle
Description: HEK 293/HA 11 beta-APP 695 cells were plated at confluence in 96-well plates and the indicated dose-response of either MDL 28170 (panel A), or Brefeldin A (panel B) was added for 16 hours. The accumulation of HA 11 A-beta (1-40) (position 40-specific antibody; QCB) was determined as in FIG. 5. Results are expressed as percentage inhibition of HA 11 A-beta (1-40) accumulation in comparison to wells incubated with vehicle (dimethyl sulfoxide, DMSO) alone.
Panel A: Immulon 2 microtiter wells were coated with mAB anti-HA 11 (5 μg/mL in PBS, 4° C., overnight), washed with PBS and blocked with 5% BSA in PBS. […] The change of absorbance of duplicate wells was determined at […] and results corrected for binding of antibodies to wells in the absence of peptide. […]
HEK 293/HA 11 beta-APP 695 cells were plated in 96-well tissue culture dishes in serum-free medium containing 0.2% BSA (1×10^6 cells/cm^2). The conditioned medium was harvested at the indicated times and analyzed for the presence of HA 11 A-beta position 40, as in example 4. HA 11 A-beta polypeptides ending at position 42 were detected in a similar ELISA system. […] Bound HA 11 A-beta 42 was detected with biotin-labeled mAB 108 (specific for the neo-epitope generated upon cleavage of beta-APP by […]), followed by HRP-labeled streptavidin and TMB substrate. […]

Row | Compound | HA 11 A-beta accumulation in conditioned medium
1 | C[C@H]1CCC/C=C/[C@@H]2C[C@H](O)C[C@H]2[C@H](O)/C=C/C(=O)O1 [brefeldin A, Brefeldin A] | decrease in the HA 11 A-beta accumulation
2 | MDL 28170 | decrease in the HA 11 A-beta accumulation
